Data reported in ChEMBL document CHEMBL1201862, “PubChem BioAssay data set” (2004).
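Exposure lasted 48 hours, with cells grown in 96-well plates and compounds tested at five concentrations. GI50 marks 50% less growth.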 Active and inactive are the calls of the source. No stated cut-off is given here; in the data, active = GI50 up to about 1.1 µM and inactive = higher.

Legend:
Experiment in all cases: DTP human tumour cell line panel, 48 h
KM-20L2 = test system: KM-20L2
LXFL 529 = test system: LXFL 529
DLD-1 = test system: DLD-1
HOP-18 = test system: HOP-18
XF498 = test system: XF498
RXF 631 = test system: RXF 631
M19-MEL = test system: M19-MEL
DMS-114 = test system: DMS-114
BT-549 = test system: BT-549

Measured: GI50

CN1CC(=O)N2Cc3ccccc3-n3cccc3C2C1 (stereo unspecified)
inactive: KM-20L2 > 100 µM | LXFL 529 > 100 µM | DLD-1 > 100 µM | HOP-18 4.92 µM | XF498 > 100 µM | RXF 631 > 100 µM | M19-MEL > 100 µM

O=C1NC(O)n2c(=O)[nH]c(=O)n21 (stereo unspecified)
inactive: KM-20L2 > 100 µM | LXFL 529 > 100 µM | DLD-1 > 100 µM | HOP-18 > 100 µM | XF498 > 100 µM | RXF 631 > 100 µM | M19-MEL > 100 µM

N#CC1C[C@@H]2CC3(CCC2CN1C(=O)c1ccccc1)OCCO3 (stereo partly specified)
inactive: KM-20L2 > 100 µM | DMS-114 > 100 µM | LXFL 529 > 100 µM | DLD-1 > 100 µM | HOP-18 > 100 µM | XF498 > 100 µM | M19-MEL > 100 µM

CN(C)NC(=S)NC12CC3CC(CC(C3)C1)C2
inactive: KM-20L2 > 100 µM | DMS-114 > 100 µM | LXFL 529 > 100 µM | DLD-1 > 100 µM | HOP-18 > 100 µM | XF498 > 100 µM | M19-MEL > 100 µM

CCOC(=O)C(C[Si](C)(C)C)P(=O)(OCC)OCC (stereo unspecified)
inactive: KM-20L2 > 100 µM | DMS-114 > 100 µM | LXFL 529 > 100 µM | DLD-1 > 100 µM | XF498 > 100 µM | RXF 631 > 100 µM | M19-MEL > 100 µM

O=C1CCCCC1C1(O)C(=O)Nc2cc(F)ccc21 (stereo unspecified)
inactive: KM-20L2 > 100 µM | DMS-114 > 100 µM | LXFL 529 > 100 µM | DLD-1 > 100 µM | HOP-18 > 100 µM | XF498 > 100 µM | M19-MEL > 100 µM

Cc1cccc(C)c1NC(=O)CCCC(=O)C1CCC/C1=N\NC(=O)C(=O)NN (stereo unspecified)
inactive: KM-20L2 > 100 µM | DMS-114 > 100 µM | LXFL 529 > 100 µM | DLD-1 > 100 µM | HOP-18 > 100 µM | XF498 > 100 µM | RXF 631 > 100 µM

CN/N=C(/CCN1CCCC1)CC(c1ccccc1)c1c(O)c2ccccc2oc1=O (stereo unspecified)
inactive: BT-549 > 100 µM | KM-20L2 > 100 µM | DMS-114 > 100 µM | LXFL 529 > 100 µM | DLD-1 > 100 µM | HOP-18 > 100 µM | XF498 > 100 µM | RXF 631 > 100 µM | M19-MEL > 100 µM

CCOC(=O)/C=C/c1ccccn1
inactive: DMS-114 > 100 µM | LXFL 529 > 100 µM | DLD-1 > 100 µM | HOP-18 > 100 µM | XF498 > 100 µM | RXF 631 > 100 µM | M19-MEL > 100 µM

O=S1(=O)c2ccccc2NC(c2ccc3ccccc3c2)CC1c1ccccc1F (stereo unspecified)
inactive: KM-20L2 > 100 µM | DLD-1 > 100 µM | HOP-18 22.1 µM | XF498 > 100 µM | RXF 631 > 100 µM | M19-MEL > 100 µM

CC(N)Cc1ccc(Cl)c(Cl)c1 (stereo unspecified)
inactive: KM-20L2 22.9 µM | DMS-114 24.2 µM | LXFL 529 19.1 µM | DLD-1 34.4 µM | HOP-18 27.8 µM | XF498 10.9 µM | M19-MEL 24.2 µM

NC(=S)N/N=C1/C(=O)N(c2ccccc2)C(=O)C1C(=O)Nc1ccccc1 (stereo unspecified)
inactive: KM-20L2 > 100 µM | DMS-114 > 100 µM | LXFL 529 > 100 µM | HOP-18 > 100 µM | XF498 > 100 µM | RXF 631 > 100 µM | M19-MEL > 100 µM

COC(=O)c1c2c(c(-c3ccccc3)c3c1-c1nc(Cl)ccc1CC3)CCc1ccc(Cl)nc1-2
inactive: KM-20L2 > 100 µM | LXFL 529 > 100 µM | DLD-1 > 100 µM | HOP-18 > 100 µM | RXF 631 > 100 µM | M19-MEL > 100 µM

COc1ccc2c(c1)C(CCN)C(=O)N2 (stereo unspecified)
inactive: KM-20L2 > 100 µM | DMS-114 > 100 µM | LXFL 529 > 100 µM | DLD-1 > 100 µM | HOP-18 > 100 µM | XF498 > 100 µM | RXF 631 > 100 µM | M19-MEL > 100 µM

O=C(NCCCCCCCCCCCCNC(=O)c1cnc2ccccc2n1)c1cnc2ccccc2n1
inactive: KM-20L2 > 100 µM | DMS-114 27.8 µM | LXFL 529 33.7 µM | DLD-1 > 100 µM | HOP-18 20.7 µM | RXF 631 99.5 µM | M19-MEL > 100 µM
